Some test systems named below: OVCAR-5 ovarian; 786-0 renal; SF-539 CNS; OVCAR-3 ovarian; SK-OV-3 ovarian; ACHN renal; KM12 colon; NCI-H522 lung; HOP-92 NSCLC; HCT-15 colon; M14 melanoma; CCRF-CEM leukemia; SK-MEL-28 melanoma; T-47D breast; OVCAR-8 ovarian; SF-268 CNS; NCI-H23 lung; SK-MEL-5 melanoma; SNB-19 CNS.
Common to all, as to assay: NCI tumour cell line growth inhibition, 48 h

Molecules are shown by their SMILES.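 Briefly, cells in 96-well plates were exposed to five compound concentrations for 48 h, and endpoints were estimated by linear interpolation. TGI: total growth inhibition.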

As for `COc1cc(O)c2c(=O)c3ccccc3n(C)c2c1`, the TGI in the test on OVCAR-5 ovarian, in the test with 786-0 renal, with SF-539 CNS, in the test on OVCAR-3 ovarian, in the test on SK-OV-3 ovarian and with ACHN renal was over 100 µM throughout. Also, the TGI in the test on KM12 colon, in the test with NCI-H522 lung, with HOP-92 NSCLC, in the test on HCT-15 colon, in the test on M14 melanoma and with CCRF-CEM leukemia was over 100 µM throughout. Further, the TGI with SK-MEL-28 melanoma, in the test with T-47D breast, with OVCAR-8 ovarian, with SF-268 CNS, in the test with NCI-H23 lung and with SK-MEL-5 melanoma was over 100 µM throughout.
With `COc1cccc2c3cccc(OC)c3c3[nH]cnc3c12`, the TGI in the test with OVCAR-5 ovarian came out at 10 µM; in the test with 786-0 renal, 2.98 µM; with SF-539 CNS it was 2.68 µM; with OVCAR-3 ovarian, 31.7 µM; in the test on SK-OV-3 ovarian, 34.1 µM; in the test on ACHN renal, 22.4 µM. The TGI in the test on KM12 colon was found to be 4.56 µM; in the test on NCI-H522 lung it was 2.88 µM; in the test on HOP-92 NSCLC, 24 µM; with HCT-15 colon it was 3.42 µM; in the test on M14 melanoma it was 3.08 µM; in the test on CCRF-CEM leukemia, 3.4 µM. Moreover, the TGI with SK-MEL-28 melanoma came out at 9.53 µM; with T-47D breast it was 40.2 µM; in the test on SNB-19 CNS, 26.9 µM; with SF-268 CNS, 9.26 µM; with NCI-H23 lung it was 3.37 µM.
For the compound `O=c1oc2ccccc2c(-c2ccc(O)cc2)c1Oc1ccc(Cl)cc1`, the TGI was over 100 µM in the test on OVCAR-5 ovarian; 73 µM in the test on 786-0 renal; over 100 µM in the test with SF-539 CNS; 39.7 µM with OVCAR-3 ovarian; 97.2 µM in the test on ACHN renal; over 100 µM with KM12 colon. In addition, the TGI with NCI-H522 lung is 43.7 µM; with HOP-92 NSCLC it was 52.9 µM; with HCT-15 colon, over 100 µM; in the test on M14 melanoma it was 39 µM; in the test with CCRF-CEM leukemia it was 52.9 µM; with SK-MEL-28 melanoma it was over 100 µM. Besides, the TGI in the test on T-47D breast was over 100 µM; with OVCAR-8 ovarian, 69.7 µM; in the test with SNB-19 CNS, 67 µM; in the test with SF-268 CNS it was 75.9 µM; in the test on NCI-H23 lung, 68.6 µM; with SK-MEL-5 melanoma, 45.3 µM.
For the compound `CCOc1cc(NC(C)=O)ccc1C(=O)N/N=C/c1ccco1`, the TGI in the test on OVCAR-5 ovarian, with 786-0 renal, in the test with SF-539 CNS, in the test on OVCAR-3 ovarian, with SK-OV-3 ovarian and with ACHN renal was over 100 µM in each case. For the same compound, the TGI in the test with KM12 colon, in the test on NCI-H522 lung, with HOP-92 NSCLC, in the test with HCT-15 colon, in the test with CCRF-CEM leukemia and in the test on SK-MEL-28 melanoma was over 100 µM in each case. Further, the TGI in the test on T-47D breast, with OVCAR-8 ovarian, in the test with SF-268 CNS, in the test with NCI-H23 lung and in the test with SK-MEL-5 melanoma was over 100 µM throughout.
With `CN(C)C(=O)c1nnsc1NN=O`, the TGI in the test on OVCAR-5 ovarian, in the test on 786-0 renal, in the test on OVCAR-3 ovarian, with SK-OV-3 ovarian, in the test on ACHN renal and in the test with KM12 colon was over 100 µM throughout. The TGI in the test on NCI-H522 lung, in the test with HOP-92 NSCLC, in the test with HCT-15 colon, in the test on M14 melanoma, with CCRF-CEM leukemia and with SK-MEL-28 melanoma was over 100 µM throughout. The TGI in the test on T-47D breast, with OVCAR-8 ovarian, with SNB-19 CNS, in the test with SF-268 CNS, with NCI-H23 lung and in the test with SK-MEL-5 melanoma was over 100 µM each time.
Regarding `C=CC1(c2ccc(Cl)c(Cl)c2)OCCO1`, the TGI in the test on OVCAR-5 ovarian, in the test on 786-0 renal, in the test with OVCAR-3 ovarian, in the test on SK-OV-3 ovarian, in the test with ACHN renal and in the test with KM12 colon was over 100 µM throughout. Further, the TGI with NCI-H522 lung, in the test on HOP-92 NSCLC, in the test on HCT-15 colon, in the test on M14 melanoma, with CCRF-CEM leukemia and with SK-MEL-28 melanoma was over 100 µM throughout. The TGI in the test on T-47D breast, in the test with OVCAR-8 ovarian, in the test with SNB-19 CNS, in the test on SF-268 CNS, in the test on NCI-H23 lung and in the test with SK-MEL-5 melanoma was over 100 µM each time.
For `O=[N+]([O-])c1nccn1CCCN=c1c2ccccc2n(O)c2ccccc12`, the TGI in the test on OVCAR-5 ovarian, in the test on 786-0 renal, in the test with SF-539 CNS, in the test on OVCAR-3 ovarian, in the test on SK-OV-3 ovarian and in the test on ACHN renal was over 100 µM each time. Moreover, the TGI with KM12 colon, in the test on NCI-H522 lung, with HOP-92 NSCLC, in the test with HCT-15 colon, in the test on M14 melanoma and with CCRF-CEM leukemia was over 100 µM in each case. Also, the TGI in the test on SK-MEL-28 melanoma, with T-47D breast, with OVCAR-8 ovarian, with SF-268 CNS, in the test with NCI-H23 lung and in the test with SK-MEL-5 melanoma was over 100 µM in each case.
`NC(=S)SC1=NNC2(C(=O)N1)c1ccccc1-c1ccccc12`: the TGI in the test with 786-0 renal, with SF-539 CNS, in the test with SK-OV-3 ovarian, in the test on ACHN renal, in the test on KM12 colon and with NCI-H522 lung was over 10 µM throughout. Also, the TGI with HOP-92 NSCLC, in the test with HCT-15 colon, in the test on M14 melanoma, in the test on CCRF-CEM leukemia, in the test with SK-MEL-28 melanoma and in the test with T-47D breast was over 10 µM each time. Moreover, the TGI in the test with OVCAR-8 ovarian, in the test on SNB-19 CNS, in the test on SF-268 CNS, with NCI-H23 lung and in the test with SK-MEL-5 melanoma was over 10 µM each time.

These data come from PubChem BioAssay (NCI).
